One assay concerns IL1RL1. Briefly: RT-PCR analysis of IL1RL1 in MDA-MB-468 cells. It is filed as cell-based, human. The following applies: similarly treated MDA-MB-468 cells. An excerpt:
A-C. […] A. A gene ontology enrichment bubble plot was produced, and the top 30 enriched GO terms are shown. Color indicates −1*log 10(FDR) for significance of overlap (the higher the more significant). X axis=log odds ratio for genes annotated to that GO term. […] C. RT-PCR analysis of IL1RL1.
A significant impact on the immune response, especially IL-1 dependent pathways was identified (FIG. 12A). IL-1-specific genes were searched and an upregulation in several IL1R genes, including IL1R2, IL1RL1, IL1RL2, IL1RAP and IL1RN (FIG. 12B) were found. […] It is hypothesized that the transient and targeted activation of the IL1/TLR pathway in the tumors may allow for the immune system to become active where previously these tumors were immune suppressive. Triple negative breast cancers with active EGFR pathways are clinically immune suppressive, and it is hypothesized that blocking nEGFR may allow for the utilization of immune targeting to treat these cancers.

In the next assay the test system is CHO cells. The assay is described as follows: Effect on CHO cells that lack EGFR expression. In kind it is cell-based. An excerpt: No effect on CHO cells that lack EGFR expression was observed.
In a further assay the test system is WAP-TGFα tumors. Briefly: Immune profiling FACS analysis of WAP-TGFα tumors. It is filed as in vivo, mouse. The following applies: 3 treated tumors; preliminary FACS. The procedure:
Preliminary immune profiling FACS analysis performed with the markers described in Example 1.
To begin to evaluate how these changes indicated by NanoString represented the immune microenvironment of these tumors, Immune Profiling was performed. […] When tumors had regressed to ˜100 mm^3 (after 1-2 weeks of treatment), tumor were excised, treated with collagenase and analyzed by FACS, using a 17-antibody panel to determine cell types present. Data was analyzed by first selecting for CD45+ cells to isolate leukocytes, then further gated based on markers specific to cells of both the adaptive and innate immune system. This preliminary analysis was done with 3 cSNX1.3-treated tumors, and the internal positive control of one spleen. […]
Immune Profiling: Tissues are digested and analyzed by FACS for the following immune markers: CD45 (lymphocytes), CD4 (helper T cells) CD3 (Pan T cell), CD25 (Activated T cells), CD8a (cytotoxic T cells), Ly6G (G-Myeloid Derived Suppressor Cells (MDSC), CD11 b (MDSC), Ly6C (M-M DSC), CD11C (Dendritic Cells), F4/80 (Macrophages), Granzyme B (Natural Killer (NK) and CD8 T cells), Arginase 1 (MDSC), Perforin (NK and CD8 Tcells), iNos (macrophages), TNFα (pro inflammatory cytokine), INFy (pro inflammatory cytokine), FoxP3 (Treg). The samples are run on a Cytek Aurora full spectrum flow cytometer and are optimized for the mouse tissues (FIG. 10). […]
(In general: Flow cytometry measures light scatter and fluorescence of single cells or particles in a stream.)

Each structure is given as a SMILES string.

Regarding `CC[C@H](C)[C@H](NC(=O)[C@@H](NC(=O)[C@H](Cc1c[nH]cn1)NC(=O)[C@H](CC(N)=O)NC(=O)[C@H](CCCCN)NC(=O)[C@H](C)NC(=O)[C@H](CCCNC(=N)N)NC(=O)[C@H](C)NC(=O)[C@H](CCC(N)=O)NC(=O)[C@H](CCCNC(=N)N)NC(=O)[C@H](C)NC(=O)[C@H](C)NC(=O)[C@H](C)NC(=O)[C@H](CCCNC(=N)N)NC(=O)[C@H](C)NC(=O)[C@H](Cc1ccc(O)cc1)NC(C)=O)C(C)C)C(=O)N[C@@H](CCCCN)C(=O)N[C@@H](Cc1ccc(O)cc1)C(=O)N[C@@H](CC(C)C)C(=O)N[C@@H](CCC(=O)O)C(=O)N[C@H](C(=O)N[C@@H](CC(C)C)C(=O)N[C@@H](CC(C)C)C(=O)N[C@@H](Cc1ccc(O)cc1)C(=O)N[C@@H](CO)C(=O)N[C@@H](CCC(N)=O)C(=O)N[C@@H](CCC(N)=O)C(=O)N[C@@H](CCC(N)=O)C(=O)N[C@@H](CC(C)C)C(=O)N[C@@H](C)C(=O)N[C@@H](CCCCN)C(=O)N[C@@H](Cc1ccc(O)cc1)C(=O)N[C@@H](Cc1c[nH]c2ccccc12)C(=O)N[C@@H](CCC(=O)O)C(=O)N[C@@H](C)C(=O)N[C@@H](Cc1ccccc1)C(=O)N[C@@H](CC(C)C)C(N)=O)[C@@H](C)O` [cSNX1.3], the IL1RL1 expression entry with IL1RL1 is given as “upregulated”. In the assay on CHO cells, the “effect on CHO cells” value was “No effect”. Moreover, in the assay on WAP-TGFα tumors, the CTLs in tumors entry is listed as “Abundant”; the “M1 macrophages over M2 macrophages (M1/M2 ratio)” value is “high and increase”.

Source of the values: US20240166702A1, “COMPOSITIONS AND METHODS FOR TREATING BREAST CANCER” (Arizona Board of Regents on Behalf of The University of …, priority 2021, published 2024).
